Measured values as given in PubChem BioAssay AID2060895 (Molecular Pharmacology Branch, DTP, NCI, 2025).

Test system: PDC 899932-113-R3-J6 complex spheroid viability
Test: Anticancer human tumor 899932-113-R3-J6-PDC patient-derived melanoma cell line growth inhibition [RAS]
Conditions: for IC50: curve of first compound; for viability, T/C: stronger effect = lower value
Excerpt: RAS pathway inhibitors in Combinations in Complex Spheroids
A high-throughput screen of multi-cell type tumor spheroids was designed to identify active combinations of RAS pathway inhibitors and targeted small molecules. Complex spheroids include a stromal component modeled by human endothelial cells (HUVEC) and fibroblasts modeled by human mesenchymal stem cells (MSCs). The concentration ranges selected for each drug and investigational agent were based upon clinically achievable concentrations if the clinical Cmax of the agent was known.
Compounds. The drugs and investigational agents: abemaciclib (NSC768073), cobimetinib (NSC768068), divarasib (GDC6063, NSC841802), docetaxel (NSC628503), GDC-1971 (RLY-1971, NSC841576), gemcitabine (NSC613327), inavolisib (NSC800729), ipatasertib (NSC767898), KB-0742 (NSC834161), MRTX-1133 (NSC836407), osimertinib (NSC779217), RMC-4630 (NSC839698), RMC-6236 (NSC851965), RMC-6291 (NSC852671), Ro-3306 (NSC812927), sapanisertib (NSC764658), SN-38 (NSC673596), staurosporine (NSC755774), SY5609 (NSC837396), and tovorafenib (DAY101, NSC766906), were obtained from the National Cancer Institute (NCI) Developmental Therapeutics Program Chemical Repository. The FDA-approved anticancer drug set is available from the NCI Developmental Therapeutics Program. […] The stock solutions were prepared in dimethyl sulfoxide (DMSO, Sigma-Aldrich, St. Louis, MO, cat. D2650) at 800-fold the tested concentration and stored at -70 degrees C prior to their use. All drugs and investigational agents were tested over a range starting from a high concentration at or near the clinical Cmax and decreasing in half-log increments. If the clinical Cmax for an agent had not been determined, the highest concentration tested was 10 microM.
Cell Culture. All cells were maintained in an incubator at 37 degrees C and 5% CO2 with 95% humidity. The PDC lines were cultured according to standard operating procedures established by the NCI PDMR. All PDCs were thawed and cultured in Matrigel-coated flasks prepared with a working solution of 1X Ham's F-12 nutrient mix, without supplementation (Invitrogen, Waltham, MA, cat. 11765054), 100 U/mL penicillin-streptomycin (Invitrogen, cat. 15140122), and 2.5% Matrigel (Corning Inc., Corning, NY, cat. 354248) for the first three passages. The 362531-283-R-J2-PDC and 782815-120-R-J1-PDC lines were cultured in 6C/Colon 1B media, which includes advanced DMEM/F-12 (Thermo Fisher Scientific, cat. 12634028), 10 mM HEPES (Thermo Fisher Scientific, cat. 15630080), 1X GlutaMAX supplement (Thermo Fisher Scientific, cat. 35050061), 0.1 mg/mL primocin (InvivoGen, San Diego, CA, cat. ant-pm-2), 10% defined fetal bovine serum, heat inactivated (HyClone Laboratories Inc., Logan, UT, cat. SH30070.03HI), 50% L-WRN conditioned media (ATCC, cat. CRL-3276), 1.25 mM N-Acetyl-L-cysteine (Sigma-Aldrich, cat. A9165), 10 mM nicotinamide (Sigma-Aldrich, cat. N0636), 1X B-27 supplement (Thermo Fisher Scientific, cat. 17504044), 1X N-2 supplement (Thermo Fisher Scientific, cat. 17502048), 50 ng/mL human EGF (Thermo Fisher Scientific, cat. PHG0311), and 10 microM Y-27632 dihydrochloride (Tocris Bioscience, cat. 1254). The K12877-001-R-J1-PDC line was cultured in 6I media, which includes all 6C/Colon 1B media plus 10 ng/mL human FGF-10 (PeproTech, cat. 100-26), 1 ng/mL human FGF-2 (PeproTech, cat. 100-18B), 1 µM prostaglandin E2 (Tocris Bioscience, cat. 2296), […] hydrocortisone (Sigma-Aldrich, cat. H4001), and […] bovine insulin (Sigma-Aldrich, cat. I6634). The K86415-001-R-J1-PDC line was cultured in 6D media, which includes all 6C/Colon 1B media components minus the L-WRN conditioned media. The 485176-168-R4-J1-PDC was cultured in PANC media, which includes all 6C/Colon 1B media plus 100 ng/mL human FGF-10 (PeproTech, cat. 100-26), 500 nM SB-431542 (Selleckchem, cat. S1067), and 10 nM gastrin (Tocris Bioscience, cat. 3006). […]
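For viability, T/C in this document: spheroids exposed to agents for seven days before readout; 100% = DMSO vehicle control wells.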

C[C@@H](NC(=O)c1ncnc(N)c1Cl)c1ncc(C(=O)Nc2cc(C(F)(F)F)c(Cl)cn2)s1 + C#Cc1c(F)ccc2cc(O)cc(-c3ncc4c(N5CC6CCC(C5)N6)nc(OCC56CCCN5CC(F)C6)nc4c3F)c12
IC50 (second compound 0.0316 µM): 6.59 µM | IC50 (second compound 0.1 µM): 6.77 µM | IC50 (second compound 0.316 µM): 6.87 µM | IC50 (second compound 1 µM): 7.39 µM | IC50 (second compound 3.16 µM): 7.73 µM | IC50 (second compound 10 µM): 6.2 µM | viability, T/C (second compound 0.0316 µM, first compound 0.0316 µM): 120% | viability, T/C (second compound 0.0316 µM, first compound 0.1 µM): 151% | viability, T/C (second compound 0.0316 µM, first compound 0.316 µM): 149% | viability, T/C (second compound 0.0316 µM, first compound 1 µM): 150% | viability, T/C (second compound 0.0316 µM, first compound 3.16 µM): 99.2% | viability, T/C (second compound 0.0316 µM, first compound 10 µM): 22.1% | viability, T/C (second compound 0.1 µM, first compound 0.0316 µM): 130% | viability, T/C (second compound 0.1 µM, first compound 0.1 µM): 133% | viability, T/C (second compound 0.1 µM, first compound 0.316 µM): 153% | viability, T/C (second compound 0.1 µM, first compound 1 µM): 151% | viability, T/C (second compound 0.1 µM, first compound 3.16 µM): 94.5% | viability, T/C (second compound 0.1 µM, first compound 10 µM): 27.2% | viability, T/C (second compound 0.316 µM, first compound 0.0316 µM): 132% | viability, T/C (second compound 0.316 µM, first compound 0.1 µM): 123% | viability, T/C (second compound 0.316 µM, first compound 0.316 µM): 145% | viability, T/C (second compound 0.316 µM, first compound 1 µM): 140% | viability, T/C (second compound 0.316 µM, first compound 3.16 µM): 94.2% | viability, T/C (second compound 0.316 µM, first compound 10 µM): 28.7% | viability, T/C (second compound 1 µM, first compound 0.0316 µM): 138% | viability, T/C (second compound 1 µM, first compound 0.1 µM): 139% | viability, T/C (second compound 1 µM, first compound 0.316 µM): 158% | viability, T/C (second compound 1 µM, first compound 1 µM): 151% | viability, T/C (second compound 1 µM, first compound 3.16 µM): 99.2% | viability, T/C (second compound 1 µM, first compound 10 µM): 32.5% | viability, T/C (second compound 3.16 µM, first compound 0.0316 µM): 124% | viability, T/C (second compound 3.16 µM, first compound 0.1 µM): 150% | viability, T/C (second compound 3.16 µM, first compound 0.316 µM): 155% | viability, T/C (second compound 3.16 µM, first compound 1 µM): 172% | viability, T/C (second compound 3.16 µM, first compound 3.16 µM): 117% | viability, T/C (second compound 3.16 µM, first compound 10 µM): 30.7% | viability, T/C (second compound 10 µM, first compound 0.0316 µM): 136% | viability, T/C (second compound 10 µM, first compound 0.1 µM): 145% | viability, T/C (second compound 10 µM, first compound 0.316 µM): 154% | viability, T/C (second compound 10 µM, first compound 1 µM): 166% | viability, T/C (second compound 10 µM, first compound 3.16 µM): 91.6% | viability, T/C (second compound 10 µM, first compound 10 µM): 20.5%
